Reference: US10730864B2, “RAD51 inhibitors and uses thereof” (THE REGENTS OF THE UNIVERSITY OF CALIFORNIA, priority 2015, dated 2020)
Like-named read-outs stand apart in the source and are kept apart here.

Tested on: triple-negative human breast cancer cell line MDA-MB-468
Experiment: XTT cell killing / growth inhibition assay, MDA-MB-468
Assay type: cell-based
Protocol: Standard XTT assays with a four-day drug treatment procedure were performed to measure the dose dependent cytotoxicity of IBR analogs in cultured cells. In brief, cells were plated on 96-well dishes one day before the drug treatment, followed by drug treatment on day 2 and XTT assay on day 6 after drug addition by using a commercial cell proliferation kit (Roche Scientific) following the instructions.
Triplicate sets were measured and compiled for final data presentation.
To test the possibility of inhibiting triple-negative breast cancer, the newly synthesized IBR2 analogues IBR101-124 were screened of their growth inhibition abilities using an XTT assay.

[1] = MDA-MB-468, XTT assay, four-day drug treatment, read-out: IC50
[2] = growth inhibition, raw dataset for SAR analysis
[3] = Homo sapiens, 96 h, MDA-MB-468, XTT assay, four-day drug treatment, read-out: IC50
[4] = Homo sapiens, MDA-MB-468, growth inhibition, raw dataset for SAR analysis, read-out: pIC50 (converted)

| SMILES | IC50 compared with that of the parental compound IBR2 (in words) (MDA-MB-468) | IC50 [1] | pIC50 [2] | growth inhibition activity (in words) (MDA-MB-468, XTT assay) | IC50 [3] | IC50 [4] |
| --- | --- | --- | --- | --- | --- | --- |
| COc1nccc2c(C3c4ccccc4C=CN3S(=O)(=O)Cc3ccccc3)c[nH]c12 (racemic) [IBR123] | significantly lower | 6.3 µM | 5.20 | – | – | – |
| O=S(=O)(Cc1ccccc1)N1CCc2ccccc2[C@@H]1c1c[nH]c2ccccc12 [IBR101] | slightly lower | 11.7 µM | 4.93 | – | – | – |
| O=S(=O)(Cc1ccccc1)N1CCc2ccccc2[C@H]1c1c[nH]c2ccccc12 [IBR102] | slightly lower | 13.2 µM | 4.88 | – | – | – |
| O=S(=O)(Cc1ccccc1F)N1CCc2ccccc2[C@@H]1c1c[nH]c2ccccc12 [IBR103] | slightly lower | 12.7 µM | 4.90 | – | – | – |
| O=S(=O)(Cc1ccccc1F)N1CCc2ccccc2[C@H]1c1c[nH]c2ccccc12 [IBR104] | – | 19.2 µM | 4.72 | – | – | – |
| O=S(=O)(Cc1cccc(F)c1)N1CCc2ccccc2[C@@H]1c1c[nH]c2ccccc12 [IBR105] | slightly lower | 14.2 µM | 4.85 | – | – | – |
| O=S(=O)(Cc1cccc(F)c1)N1CCc2ccccc2[C@H]1c1c[nH]c2ccccc12 [IBR106] | – | 17.2 µM | 4.76 | – | – | – |
| O=S(=O)(Cc1ccc(F)cc1)N1CCc2ccccc2[C@@H]1c1c[nH]c2ccccc12 [IBR107] | slightly lower | 11.2 µM | 4.95 | – | – | – |
| O=S(=O)(Cc1ccc(F)cc1)N1CCc2ccccc2[C@H]1c1c[nH]c2ccccc12 [IBR108] | – | 25.7 µM | 4.59 | – | – | – |
| O=S(=O)(Cc1ccccc1C(F)(F)F)N1CCc2ccccc2[C@@H]1c1c[nH]c2ccccc12 [IBR109] | slightly lower | 14.8 µM | 4.83 | – | – | – |
| O=S(=O)(Cc1ccccc1C(F)(F)F)N1CCc2ccccc2[C@H]1c1c[nH]c2ccccc12 [IBR110] | – | 16.7 µM | 4.78 | – | – | – |
| O=S(=O)(Cc1cccc(C(F)(F)F)c1)N1CCc2ccccc2[C@@H]1c1c[nH]c2ccccc12 [IBR111] | slightly lower | 11.1 µM | 4.95 | – | – | – |
| O=S(=O)(Cc1cccc(C(F)(F)F)c1)N1CCc2ccccc2[C@H]1c1c[nH]c2ccccc12 [IBR112] | – | 22.2 µM | 4.65 | – | – | – |
| O=S(=O)(Cc1ccc(C(F)(F)F)cc1)N1CCc2ccccc2[C@@H]1c1c[nH]c2ccccc12 [IBR113] | slightly lower | 13.6 µM | 4.87 | – | – | – |
| O=S(=O)(Cc1ccc(C(F)(F)F)cc1)N1CCc2ccccc2[C@H]1c1c[nH]c2ccccc12 [IBR114] | – | 20.7 µM | 4.68 | – | – | – |
| O=S(=O)(Cc1ccccc1)N1CC=Cc2ccccc2[C@@H]1c1c[nH]c2ccccc12 [IBR115] | slightly lower | 14.7 µM | 4.83 | minimal change of activity | – | – |
| O=S(=O)(Cc1ccccc1)N1CC=Cc2ccccc2[C@H]1c1c[nH]c2ccccc12 [IBR116] | – | > 50 µM | ≤ 4.30 | almost complete loss of function | – | – |
| O=S(=O)(Cc1ccccc1)N1CCc2ccccc2[C@@H]1c1n[nH]c2ccccc12 [IBR117, (R)-1-(1H-Indazol-3-yl)-2-phenylmethanesulfonyl-1,2,3,4-tetrahydro-isoquinoline] | significantly lower | – | – | – | 9.5 µM | 9.55 µM |
| O=S(=O)(Cc1ccccc1)N1CCc2ccccc2[C@H]1c1n[nH]c2ccccc12 [IBR118, (S)-1-(1H-Indazol-3-yl)-2-phenylmethanesulfonyl-1,2,3,4-tetrahydro-isoquinoline] | slightly lower | – | – | – | 14.3 µM | 14.5 µM |
| Nc1ncc([C@@H]2c3ccccc3CCN2S(=O)(=O)Cc2ccccc2)s1 [IBR119, 5-((S)-2-Phenylmethanesulfonyl-1,2,3,4-tetrahydro-isoquinolin-1-yl)thiazol-2-ylamine] | – | – | – | – | > 25 µM | ≥ 25.1 µM |
| O=S(=O)(Cc1ccccc1)N1Cc2ccccc2[C@H]1c1c[nH]c2ccccc12 [IBR121, (S)-3-(2-(benzylsulfonyl)isoindolin-1-yl)-1H-indole] | – | – | – | – | > 12 µM | ≥ 12 µM |
| COc1cc2c(C3c4ccccc4C=CN3S(=O)(=O)Cc3ccccc3)c[nH]c2cn1 (centres unmarked) [IBR122] | slightly lower | 12.7 µM | 4.90 | – | – | – |
| O=S(=O)(Cc1ccccc1)N1C=Cc2ccccc2C1c1c[nH]c2ncccc12 (centres unmarked) [IBR124] | significantly lower | 6.2 µM | 5.21 | – | – | – |
